For 1 substance, MIC results are on record in patent US6605630B1, “Antibiotic oxazolidinone derivatives” (Syngenta Limited, priority 1997, dated 2003).

One experiment concerns Bacillus subtilis. The source says:
(§1) The activity is described in terms of the minimum inhibitory concentration (MIC) determined by the agar-dilution technique with an inoculum size of 10^4 CFU/spot.

A further experiment has as its system Enterococcus faecalis. Conditions: agar with 5% defibrinated horse blood, 10^4 CFU/spot, 37° C., 5% carbon dioxide, 48 hours. The method, then:
as §1
(§2) Streptococci and enterococci were tested on agar supplemented with 5% defibrinated horse blood, an inoculum of 10^4 CFU/spot and an incubation temperature of 37° C. in an atmosphere of 5% carbon dioxide for 48 hours-blood is required for the growth of some of the test organisms.

In experiment [1] the test system is Streptococcus pyogenes C203. The settings on record: agar with 5% defibrinated horse blood, 10^4 CFU/spot, 37° C., 5% carbon dioxide, 48 hours. On the procedure:
as §1, §2

Experiment [2] relates to Staphylococcus aureus Oxford. On the procedure:
as §1
(§3) Staphylococci were tested on agar, using an inoculum of 10^4 CFU/spot and an incubation temperature of 37° C. for 24 hours-standard test conditions for the expression of methicillin resistance.

The test system of experiment [3] is Staphylococcus aureus MRQR. On the procedure: as §1, §3
Experiment [4] concerns Staphylococcus aureus Novb. Res. The method, then: as §1, §3
In experiment [5] the test system is Coagulase Negative Staphylococci MS. On the procedure:
as §1, §3

Experiment [6] deals with Coagulase Negative Staphylococci MR. On the procedure:
as §1, §3

As to “N-((5S)-3-(4-((7aS)[3H,5H]-3-oxo-1,7a-Dihydropyrrolol[1,2c]oxazol-6-yl)phenyl)-2-oxooxazolidin-5-ylmethyl)acetamide [Example 44]”, the MIC – broadly, the lowest concentration found to suppress growth – in the experiment with Bacillus subtilis stood at 0.50 µg/mL; in the experiment on Enterococcus faecalis it was 0.50 µg/mL; in experiment [1], 0.13 µg/mL; in experiment [2], 0.25 µg/mL; in experiment [3], 2.00 µg/mL; in experiment [4], 0.50 µg/mL. The MIC in experiment [5] turned out to be 0.13 µg/mL; in experiment [6] it was 0.50 µg/mL.
